Data taken from PubChem BioAssay AID248 (DTP/NCI, 2004).
Inconclusive results and toxic doses are left out. Rule as the data show it: active = T/C of 150% or more; inactive = T/C below 125%.

Test system: L1210 leukemia ip in BDF1 mice, survival T/C
Experiment: NCI In Vivo Anticancer Drug Screen. Data for tumor model L1210 Leukemia (intraperitoneal) in B6D2F1 (BDF1) mice
Settings: endpoint: mean survival time, higher = longer survival
Outline: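 Transplantable tumor model; survival measured in treated vs vehicle control mice. Value = treated/control.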

Measured: T/C

COc1ccc(NC(=O)Nc2ccccc2Cl)c(Cl)c1
inactive: dose: 100.0 mg/kg/injection, schedule: Q04DX002 (ip), vehicle: saline with Tween-80 90 % of control | dose: 200.0 mg/kg/injection, schedule: Q04DX002 (ip), vehicle: saline with Tween-80 87 % of control | dose: 400.0 mg/kg/injection, schedule: Q04DX002 (ip), vehicle: saline with Tween-80 87 % of control

CC1(C)C2CCC1C(CO)C2 (centres undefined)
inactive: dose: 100.0 mg/kg/injection, schedule: Q01DX009 (ip), vehicle: Klucel (hydroxypropylcellulose) (HPC) 94 % of control | dose: 100.0 mg/kg/injection, schedule: Q04DX003 (ip), vehicle: Klucel (hydroxypropylcellulose) (HPC) 96 % of control | dose: 200.0 mg/kg/injection, schedule: Q01DX009 (ip), vehicle: Klucel (hydroxypropylcellulose) (HPC) 104 % of control | dose: 200.0 mg/kg/injection, schedule: Q04DX003 (ip), vehicle: Klucel (hydroxypropylcellulose) (HPC) 107 % of control | dose: 400.0 mg/kg/injection, schedule: Q01DX009 (ip), vehicle: Klucel (hydroxypropylcellulose) (HPC) 100 % of control | dose: 400.0 mg/kg/injection, schedule: Q04DX003 (ip), vehicle: Klucel (hydroxypropylcellulose) (HPC) 102 % of control
